Measurements from PMC3123319, “Insights into the Regulatory Characteristics of the Mycobacterial Dephosphocoenzyme A Kinase: Implications for the Universal CoA Biosynthesis Pathway” (PLoS ONE, 2011).

Molecular target: T1, dephosphocoenzyme A kinase (CoaE) (Mycobacterium tuberculosis, UniProt P9WPA3)
T1 sequence (P9WPA3 1-407): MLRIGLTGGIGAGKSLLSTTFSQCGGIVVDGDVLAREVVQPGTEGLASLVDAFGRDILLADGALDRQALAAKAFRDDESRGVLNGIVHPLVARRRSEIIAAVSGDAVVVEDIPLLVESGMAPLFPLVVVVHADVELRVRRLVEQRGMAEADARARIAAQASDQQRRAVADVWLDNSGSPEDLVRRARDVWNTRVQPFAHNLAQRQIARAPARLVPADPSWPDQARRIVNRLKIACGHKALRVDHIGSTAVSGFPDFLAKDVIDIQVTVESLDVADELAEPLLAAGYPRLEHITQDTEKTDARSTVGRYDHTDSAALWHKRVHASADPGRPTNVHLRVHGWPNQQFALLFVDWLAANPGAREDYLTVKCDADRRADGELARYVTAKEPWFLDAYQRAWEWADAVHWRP
Assay: coupled PK-LDH spectrophotometric assay, Dixon plot; supported by tryptophan fluorescence quenching, SEC and limited proteolysis
Type: biochemical

Nc1ccn([C@@H]2O[C@H](COP(=O)(O)OP(=O)(O)OP(=O)(O)O)[C@@H](O)[C@H]2O)c(=O)n1 [CTP]
Ki: 34 µM
